Source: US12358954B2, “Capsid-modified rAAV vector compositions and methods therefor” (priority 2012, dated 2025)

Experiments:
[1] = tested on: HeLa cells; test: AAV-EGFP transduction of HeLa cells in the presence of NF-κB modulators; format: cell-based, human
Method: (§1) Recombinant AAV Vector Transduction Assays in Vitro. Optimal concentration of NF-κB-modulating compounds was determined by a cell viability assay with tenfold-dilutions from the IC50 or were used as described previously (Wu and Miyamoto, 2008; Kumar et al., 2008). VP16 or Bay11 (10 or 5 μM, final concentration), and PDTC (50 or 25 μM final concentration) were used either alone or in activator/inhibitor combinations. For transduction experiments, approximately 1×10^5 HeLa cells were either pre-treated with these compounds 24 hrs prior to vector infection. Cells were transduced with 500 or 2,000 vector genomes (vgs) per cell of recombinant WT-AAV or TM-AAV vectors encoding the EGFP transgene as described previously (Markusic et al., 2010). After 7 days of culture, primary human dendritic cells were transduced with AAV vectors at 2000 vgs/cell and incubated for 48 hrs. Transgene expression was assessed as total area of green fluorescence (pixel^2) per visual field (mean±SD), or by flow cytometry. Analysis of variance (ANOVA) was used to compare between test results and the control and they were determined to be statistically significant.

[2] = tested on: non-canonical NF-κB pathway (p100, p52); test: Western blot of NF-κB pathway components in HeLa cells; format: cell-based, human
From the text: Western Blot Analyses. Homogenized lysates of the cell pellets from ˜2×10^6 HeLa cells or DCs, mock or pre-treated with the optimal concentration of NF-κB activators or inhibitors were used for sample preparation. Whole cell proteins were isolated using the RIPA lysis buffer (Sigma-Aldrich Co.) and cytoplasmic and nuclear proteins were extracted using a commercial kit (NE-PER Extraction Reagent Kit, Pierce Biotech, Rockford, Ill., USA) as per the manufacturer's protocol in the presence of a protease inhibitor cocktail (Halt™ Protease Inhibitor Cocktail Kit, Pierce Biotech). The protein extracts were boiled for 5 min under reducing conditions [SDS-sample buffer containing 62.5 mM Tris-HCl (pH 6.8 at 25° C.), 2% wt./vol. SDS, 10% glycerol, 50 mM DTT, 0.01% wt./vol. bromo-phenol blue (Cell Signaling Technology, Inc.)] and stored at −86° C. until further analysis. Equal volumes of samples were run on 4-15% SDS-PAGE (Bio-Rad, Hercules, Calif., USA). […] The intensity of the protein bands was measured with Adobe Photoshop CS3 Software® and normalized to proteins levels from the housekeeping gene products used as loading controls.

[3] = tested on: primary human dendritic cells; test: AAV-EGFP transduction of primary human dendritic cells with NF-κB modulators (flow cytometry); format: cell-based; conditions: scAAV-transduced DCs treated with cytokines; Bay11 row: cytokines plus Bay11
Method: as §1
Cells, Antibodies and Chemicals. […]

SMILES: Cc1ccc(S(=O)(=O)/C=C/C#N)cc1 [Bay11, Bay11-7082]
- AAV vector-mediated EGFP expression, fold augmentation ([1]; HeLa, scAAV-EGFP): totally ablated
- VP16-mediated augmented transgene expression ([1]; activator/inhibitor combination): completely ablated
- AAV-induced increase of p100 and p52 [2]: ablated
- transgene expression in DCs [3]: ~12%
